{
  "source": "patent US10064865B2",
  "about": "“Composition comprising phosphodiesterase type 5 inhibitor for inhibiting apoptosis of nerve cells” (ARIBIO INC., priority 2012, dated 2018)",
  "tested_on": "neuron apoptosis-operated rats",
  "assay": "Example 1 body swing test",
  "assay_type": "in vivo, Sprague-Dawley (SD) rats",
  "procedure": "Sensorimotor function was evaluated by use of limb placing de Ryck M et al., Stroke. 20:1383-90(1989)) and body swing (Borlongan and Sanberg, J Neurosci. 15:5372-8(1995)) tests. These tests were performed one day before neuron apoptosis to obtain a baseline and then at 1, 3, 7, 14, 21 and 28 days after neuron apoptosis. Behavioral tests were done before drug administration on days when both were scheduled. The investigator performing the surgery and behavioral assessments was blinded to treatment assignment.\nBody swing tests: Animals were held approximately 2 cm from the base of its tail and elevated to an inch above a surface of a table. A swing was recorded whenever the rat moved its head out of the vertical axis to either side by more than 10° from vertical and then returned to the vertical position. Thirty total swings were counted per animal. After right-hemisphere neuron apoptosis, animals tend to swing to the contralateral (left) side. Thus, the numbers and percentages of body swings to the ipsilateral (right) side were recorded as a measure of recovery, with an intact animal scoring.\nAll data were expressed as mean±standard deviation (S.D.) of ten rats. Multiple comparison tests for different dose groups were conducted. Variance homogeneity was examined using the Levene test (Levene A, Clin Otalary, 1981; 6:145-51). […] Statistical analyses were conducted using SPSS (Release 14K, SPSS Inc., USA; Ludbrook, Clin Exp Pharmacol Physiol, 1997; 24:294-6). In addition, the percent changes between neuron apoptosis control and mirodenafil treated rats were calculated to help the understanding of the efficacy of test material as follow equation 3. Percentage changes as compared with neuron apoptosis control (%)=[((Data of mirodenafil treated groups−Data of neuron apoptosis control)/Data of neuron apoptosis control)×100] [EQUATION 3]",
  "key": {"[1]": {"settings": "0.5 mg/kg group, day 1 after operation (before drug administration)"}, "[2]": {"settings": "0.5 mg/kg group, day −1 (baseline)"}, "[3]": {"settings": "0.5 mg/kg s.c. once a day, day 3 after operation"}, "[4]": {"settings": "0.5 mg/kg s.c. once a day, day 7 after operation"}, "[5]": {"settings": "0.5 mg/kg s.c. once a day, day 14 after operation"}, "[6]": {"settings": "0.5 mg/kg s.c. once a day, day 21 after operation"}, "[7]": {"settings": "0.5 mg/kg s.c. once a day, day 28 after operation"}, "[8]": {"settings": "1 mg/kg group, day 1 after operation (before drug administration)"}, "[9]": {"settings": "1 mg/kg group, day −1 (baseline)"}, "[10]": {"settings": "1 mg/kg s.c. once a day, day 3 after operation"}, "[11]": {"settings": "1 mg/kg s.c. once a day, day 7 after operation"}, "[12]": {"settings": "1 mg/kg s.c. once a day, day 14 after operation"}, "[13]": {"settings": "1 mg/kg s.c. once a day, day 21 after operation"}, "[14]": {"settings": "1 mg/kg s.c. once a day, day 28 after operation"}, "[15]": {"settings": "2 mg/kg group, day 1 after operation (before drug administration)"}, "[16]": {"settings": "2 mg/kg group, day −1 (baseline)"}, "[17]": {"settings": "2 mg/kg s.c. once a day, day 3 after operation"}, "[18]": {"settings": "2 mg/kg s.c. once a day, day 7 after operation"}, "[19]": {"settings": "2 mg/kg s.c. once a day, day 14 after operation"}, "[20]": {"settings": "2 mg/kg s.c. once a day, day 21 after operation"}, "[21]": {"settings": "2 mg/kg s.c. once a day, day 28 after operation"}},
  "note": "Marks after values point to notes of the source that are not given here.",
  "data": [
    {"compound": "CCCOc1ccc(S(=O)(=O)N2CCN(CCO)CC2)cc1-c1nc2c(CCC)cn(CC)c2c(=O)[nH]1", "note": "[Mirodenafil, mirodenafil]", "values": [
      {"measurement": "The numbers of body swings to the ipsilateral right sides/total 30 body swings", "setting": "[1]", "result": "1.40 ± 1.17^a"},
      {"measurement": "The percentages of body swings to the ipsilateral right sides/total 30 body swings", "setting": "[1]", "result": "4.67 ± 3.91^a %"},
      {"measurement": "The numbers of body swings to the ipsilateral right sides/total 30 body swings", "setting": "[2]", "result": "15.10 ± 0.99"},
      {"measurement": "The percentages of body swings to the ipsilateral right sides/total 30 body swings", "setting": "[2]", "result": "50.33 ± 3.31", "unit": "%"},
      {"measurement": "The numbers of body swings to the ipsilateral right sides/total 30 body swings", "setting": "[3]", "result": "2.10 ± 1.37^a"},
      {"measurement": "The percentages of body swings to the ipsilateral right sides/total 30 body swings", "setting": "[3]", "result": "7.00 ± 4.57^a %"},
      {"measurement": "The numbers of body swings to the ipsilateral right sides/total 30 body swings", "setting": "[4]", "result": "2.40 ± 1.26^a"},
      {"measurement": "The percentages of body swings to the ipsilateral right sides/total 30 body swings", "setting": "[4]", "result": "8.00 ± 4.22^a %"},
      {"measurement": "The numbers of body swings to the ipsilateral right sides/total 30 body swings", "setting": "[5]", "result": "4.20 ± 1.62^ac"},
      {"measurement": "The percentages of body swings to the ipsilateral right sides/total 30 body swings", "setting": "[5]", "result": "14.00 ± 5.40^ac %"},
      {"measurement": "The numbers of body swings to the ipsilateral right sides/total 30 body swings", "setting": "[6]", "result": "5.40 ± 1.26^ab"},
      {"measurement": "The percentages of body swings to the ipsilateral right sides/total 30 body swings", "setting": "[6]", "result": "18.00 ± 4.22^ab %"},
      {"measurement": "The numbers of body swings to the ipsilateral right sides/total 30 body swings", "setting": "[7]", "result": "6.20 ± 1.99^ac"},
      {"measurement": "The percentages of body swings to the ipsilateral right sides/total 30 body swings", "setting": "[7]", "result": "20.67 ± 6.63^ac %"},
      {"measurement": "numbers and percentages of body swings to ipsilateral right sides, change as compared with neuron apoptosis control", "setting": "0.5 mg/kg, 3 days after surgery", "result": 16.67, "unit": "%"},
      {"measurement": "numbers and percentages of body swings to ipsilateral right sides, change as compared with neuron apoptosis control", "setting": "0.5 mg/kg, 7 days after surgery", "result": 9.09, "unit": "%"},
      {"measurement": "numbers and percentages of body swings to ipsilateral right sides, change as compared with neuron apoptosis control", "setting": "0.5 mg/kg, 14 days after surgery", "result": 44.83, "unit": "%"},
      {"measurement": "numbers and percentages of body swings to ipsilateral right sides, change as compared with neuron apoptosis control", "setting": "0.5 mg/kg, 21 days after surgery", "result": 50.00, "unit": "%"},
      {"measurement": "numbers and percentages of body swings to ipsilateral right sides, change as compared with neuron apoptosis control", "setting": "0.5 mg/kg, 28 days after surgery", "result": 44.19, "unit": "%"},
      {"measurement": "The numbers of body swings to the ipsilateral right sides/total 30 body swings", "setting": "[8]", "result": "1.30 ± 0.95^a"},
      {"measurement": "The percentages of body swings to the ipsilateral right sides/total 30 body swings", "setting": "[8]", "result": "4.33 ± 3.16^a %"},
      {"measurement": "The numbers of body swings to the ipsilateral right sides/total 30 body swings", "setting": "[9]", "result": "15.10 ± 1.29"},
      {"measurement": "The percentages of body swings to the ipsilateral right sides/total 30 body swings", "setting": "[9]", "result": "50.33 ± 4.29", "unit": "%"},
      {"measurement": "The numbers of body swings to the ipsilateral right sides/total 30 body swings", "setting": "[10]", "result": "2.70 ± 0.82^a"},
      {"measurement": "The percentages of body swings to the ipsilateral right sides/total 30 body swings", "setting": "[10]", "result": "9.00 ± 2.74^a %"},
      {"measurement": "The numbers of body swings to the ipsilateral right sides/total 30 body swings", "setting": "[11]", "result": "3.10 ± 0.88^a"},
      {"measurement": "The percentages of body swings to the ipsilateral right sides/total 30 body swings", "setting": "[11]", "result": "10.33 ± 2.92^a %"},
      {"measurement": "The numbers of body swings to the ipsilateral right sides/total 30 body swings", "setting": "[12]", "result": "5.80 ± 1.23^ab"},
      {"measurement": "The percentages of body swings to the ipsilateral right sides/total 30 body swings", "setting": "[12]", "result": "19.33 ± 4.10^ab %"},
      {"measurement": "The numbers of body swings to the ipsilateral right sides/total 30 body swings", "setting": "[13]", "result": "7.30 ± 1.89^ab"},
      {"measurement": "The percentages of body swings to the ipsilateral right sides/total 30 body swings", "setting": "[13]", "result": "24.33 ± 6.30^ab %"},
      {"measurement": "The numbers of body swings to the ipsilateral right sides/total 30 body swings", "setting": "[14]", "result": "11.50 ± 1.58^ab"},
      {"measurement": "The percentages of body swings to the ipsilateral right sides/total 30 body swings", "setting": "[14]", "result": "38.33 ± 5.27^ab %"},
      {"measurement": "numbers and percentages of body swings to ipsilateral right sides, change as compared with neuron apoptosis control", "setting": "1 mg/kg, 3 days after surgery", "result": 50.00, "unit": "%"},
      {"measurement": "numbers and percentages of body swings to ipsilateral right sides, change as compared with neuron apoptosis control", "setting": "1 mg/kg, 7 days after surgery", "result": 40.91, "unit": "%"},
      {"measurement": "numbers and percentages of body swings to ipsilateral right sides, change as compared with neuron apoptosis control", "setting": "1 mg/kg, 14 days after surgery", "result": 100.00, "unit": "%"},
      {"measurement": "numbers and percentages of body swings to ipsilateral right sides, change as compared with neuron apoptosis control", "setting": "1 mg/kg, 21 days after surgery", "result": 102.78, "unit": "%"},
      {"measurement": "numbers and percentages of body swings to ipsilateral right sides, change as compared with neuron apoptosis control", "setting": "1 mg/kg, 28 days after surgery", "result": 167.44, "unit": "%"},
      {"measurement": "The numbers of body swings to the ipsilateral right sides/total 30 body swings", "setting": "[15]", "result": "1.20 ± 0.63^a"},
      {"measurement": "The percentages of body swings to the ipsilateral right sides/total 30 body swings", "setting": "[15]", "result": "4.00 ± 2.11^a %"},
      {"measurement": "The numbers of body swings to the ipsilateral right sides/total 30 body swings", "setting": "[16]", "result": "15.00 ± 1.15"},
      {"measurement": "The percentages of body swings to the ipsilateral right sides/total 30 body swings", "setting": "[16]", "result": "50.00 ± 3.85", "unit": "%"},
      {"measurement": "The numbers of body swings to the ipsilateral right sides/total 30 body swings", "setting": "[17]", "result": "3.00 ± 0.82^ac"},
      {"measurement": "The percentages of body swings to the ipsilateral right sides/total 30 body swings", "setting": "[17]", "result": "10.00 ± 2.72^ac %"},
      {"measurement": "The numbers of body swings to the ipsilateral right sides/total 30 body swings", "setting": "[18]", "result": "3.20 ± 0.63^ac"},
      {"measurement": "The percentages of body swings to the ipsilateral right sides/total 30 body swings", "setting": "[18]", "result": "10.67 ± 2.11^ac %"},
      {"measurement": "The numbers of body swings to the ipsilateral right sides/total 30 body swings", "setting": "[19]", "result": "6.00 ± 1.56^ab"},
      {"measurement": "The percentages of body swings to the ipsilateral right sides/total 30 body swings", "setting": "[19]", "result": "20.00 ± 5.21^ab %"},
      {"measurement": "The numbers of body swings to the ipsilateral right sides/total 30 body swings", "setting": "[20]", "result": "8.80 ± 1.23^ab"},
      {"measurement": "The percentages of body swings to the ipsilateral right sides/total 30 body swings", "setting": "[20]", "result": "29.33 ± 4.10^ab %"},
      {"measurement": "The numbers of body swings to the ipsilateral right sides/total 30 body swings", "setting": "[21]", "result": "11.10 ± 1.91^ab"},
      {"measurement": "The percentages of body swings to the ipsilateral right sides/total 30 body swings", "setting": "[21]", "result": "37.00 ± 6.37^ab %"},
      {"measurement": "numbers and percentages of body swings to ipsilateral right sides, change as compared with neuron apoptosis control", "setting": "2 mg/kg, 3 days after surgery", "result": 66.67, "unit": "%"},
      {"measurement": "numbers and percentages of body swings to ipsilateral right sides, change as compared with neuron apoptosis control", "setting": "2 mg/kg, 7 days after surgery", "result": 45.45, "unit": "%"},
      {"measurement": "numbers and percentages of body swings to ipsilateral right sides, change as compared with neuron apoptosis control", "setting": "2 mg/kg, 14 days after surgery", "result": 106.90, "unit": "%"},
      {"measurement": "numbers and percentages of body swings to ipsilateral right sides, change as compared with neuron apoptosis control", "setting": "2 mg/kg, 21 days after surgery", "result": 144.44, "unit": "%"},
      {"measurement": "numbers and percentages of body swings to ipsilateral right sides, change as compared with neuron apoptosis control", "setting": "2 mg/kg, 28 days after surgery", "result": 158.14, "unit": "%"}
    ]}
  ]
}
